Values of other authors, collected in publication PMC5742115, “Pharmacophore Modeling and in Silico/in Vitro Screening for Human Cytochrome P450 11B1 and Cytochrome P450 11B2 Inhibitors” (Frontiers in Chemistry, 2017).

Tested on: CYP11B1
Conditions: Figure 2; ref Yin et al., 2012; Emmerich et al., 2013; Gobbi et al., 2016; read-out: hCYP11B1 IC50; cited from earlier work

For `O=c1c(Cn2ccnc2)c(-c2ccccc2)oc2cc(F)ccc12` [Compound 3], the IC50 is listed as 9.7 nM.

Same assay, conditions: reported activity, supplementary Table 1; ref Emmerich et al., 2013; read-out: CYP11B1 IC50; cited from earlier work

First: Oc1cncc(Cc2ccc(-c3ccccc3)nc2)c1 [CHEMBL2417615]
Second: Cc1cncc(Cc2ccc(-c3ccccc3)nc2)c1 [CHEMBL2417553]
The IC50 of the first is 26-fold higher: 51 nM for the first, 2 nM for the second. The second is the more potent here.

Going from `c1ccc(-c2ccc(Cc3ccncc3)cn2)cc1` [CHEMBL2417634] to `Cc1ccncc1Cc1ccc(-c2ccccc2)nc1` [CHEMBL2417637], the IC50 falls from 98 nM to 8 nM (12-fold). The second is the more potent here.

For `CC(c1ccc(-c2ccsc2)nc1)n1ccnc1` (stereo not drawn) [CHEMBL2417625], the IC50 is given as 21 nM.

Same assay, conditions: reported activity, supplementary Table 1; ref Gobbi et al., 2013; read-out: CYP11B1 IC50; cited from earlier work

Compared with `CC(C)CCOc1ccc(Cn2ccnc2)c2c(=O)c3ccccc3oc12` [CHEMBL2333332], `COc1ccc(Cn2ccnc2)c2c(=O)c3ccccc3oc12` [CHEMBL2333329] is 3.3-fold higher in IC50: 24.4 nM for the first, 80.1 nM for the second.

Same assay, conditions: reported activity, supplementary Table 1; ref Heim et al., 2008; read-out: CYP11B1 IC50; cited from earlier work

Going from `COc1ccc2cc(-c3cncc(CO)c3)ccc2c1` [CHEMBL448064] to `COc1ccc2cc(-c3cccnc3)c(C)cc2c1` [CHEMBL499871], the IC50 rises from 614 nM to 1050 nM (1.7-fold).

Going from `COc1ccc2c(c1)CC(C)C(c1cncc3ccccc13)=C2` (stereo not drawn) [CHEMBL499044] to `COc1ccc2cc(-c3cncc4ccccc34)c(C)cc2c1` [CHEMBL525785], the IC50 rises from 64 nM to 843 nM (13-fold).

For `N#Cc1ccc2c(c1)CCC(c1cccnc1)=C2` [CHEMBL500663], the IC50 is given as 461 nM.

Same assay, conditions: reported activity, supplementary Table 1; ref Hille et al., 2011a; read-out: CYP11B1 IC50; cited from earlier work

Compared with `Clc1ncc(Cn2ccnc2)cc1-c1cccs1` [CHEMBL2011430], `c1coc(-c2cc(Cn3ccnc3)cnc2-c2ccco2)c1` [CHEMBL2011437] is 2.5-fold lower in IC50: 73 nM for the first, 29 nM for the second.

`c1ccc2c(-c3ccc(Cn4ccnc4)cn3)cncc2c1` [CHEMBL2011260] and `c1cn(Cc2ccc(-c3ccoc3)nc2)cn1` [CHEMBL2011435] are within 1.5-fold of each other in IC50: 95 nM for the first, 76 nM for the second.

Same assay, conditions: reported activity, supplementary Table 1; ref Hille et al., 2011b; read-out: CYP11B1 IC50; cited from earlier work

Going from `Cc1cccc(Cn2ccnc2)c1` [CHEMBL1651493] to `Cc1cc(C)cc(Cn2ccnc2)c1` [CHEMBL1651494], the IC50 falls from 48 nM to 32 nM (1.5-fold).

`c1ccc(-c2ccc(Cn3ccnc3)s2)cc1` [CHEMBL1651514] and `c1ccc(-c2ccc(Cn3ccnc3)cc2)cc1` [CHEMBL1235146] are within 1.5-fold of each other in IC50: 43 nM for the first, 32 nM for the second.

Same assay, conditions: reported activity, supplementary Table 1; ref Hu et al., 2012; read-out: CYP11B1 IC50; cited from earlier work

In the case of `O=C1CCc2cc(-c3cccnc3)cc(Br)c2N1` [CHEMBL2165322], the IC50 is listed as 1420 nM.

Same assay, conditions: reported activity, supplementary Table 1; ref Lucas et al., 2008b; read-out: CYP11B1 IC50; cited from earlier work

In the case of `CN1C(=O)CCc2cc(-c3cccnc3)ccc21` [CHEMBL446083], the IC50 is listed as 742 nM.

Same assay, conditions: reported activity, supplementary Table 1; ref Lucas et al., 2011; read-out: CYP11B1 IC50; cited from earlier work

Going from `S=C1CCc2cc(-c3cccnc3)cc3c2N1CC3` [CHEMBL1765232] to `O=C1CCc2cc(-c3cccnc3)cc3c2N1CC3` [CHEMBL1765205], the IC50 rises from 333 nM to 715 nM (2.1-fold). The first is the more potent here.

`O=C1CCc2cc(-c3cncc(-c4cc(F)cc(F)c4)c3)cc3c2N1CC3` [CHEMBL1765225] and `O=C1CCc2cc(-c3cncc(F)c3)cc3c2N1CC3` [CHEMBL1765212] are within 1.5-fold of each other in IC50: 1750 nM for the first, 1290 nM for the second.

Going from `COc1cncc(-c2cc3c4c(c2)CCC(=O)N4CCC3)c1` [CHEMBL1765208] to `O=C1CCc2cc(-c3cncnc3)cc3c2N1CC3` [CHEMBL1765217], the IC50 rises from 545 nM to 28500 nM (52-fold). The first is the more potent here.

For `O=C1CCc2cc(-c3cncc(-c4ccccc4F)c3)cc3c2N1CC3` [CHEMBL1765220], the IC50 is given as 43 nM.

Tested on: CYP11B2
Conditions: Figure 2; ref Yin et al., 2012; Emmerich et al., 2013; Gobbi et al., 2016; read-out: hCYP11B2 IC50; cited from earlier work

In the case of `O=c1c(Cn2ccnc2)c(-c2ccccc2)oc2cc(F)ccc12` [Compound 3], the IC50 is listed as 94.9 nM.

Same assay, conditions: reported activity, supplementary Table 1; ref Emmerich et al., 2013; read-out: CYP11B2 IC50; cited from earlier work

First: Oc1cncc(Cc2ccc(-c3ccccc3)nc2)c1 [CHEMBL2417615]
Second: Cc1cncc(Cc2ccc(-c3ccccc3)nc2)c1 [CHEMBL2417553]
The IC50 of the first is 25-fold higher: 836 nM for the first, 33 nM for the second. The second is the more potent here.

First: c1ccc(-c2ccc(Cc3ccncc3)cn2)cc1 [CHEMBL2417634]
Second: Cc1ccncc1Cc1ccc(-c2ccccc2)nc1 [CHEMBL2417637]
The IC50 of the first is 33-fold higher: 621 nM for the first, 19 nM for the second.

In the case of `CC(c1ccc(-c2ccsc2)nc1)n1ccnc1` (stereo not drawn) [CHEMBL2417625], the IC50 is given as 151 nM.

Same assay, conditions: reported activity, supplementary Table 1; ref Gobbi et al., 2013; read-out: CYP11B2 IC50; cited from earlier work

Compared with `CC(C)CCOc1ccc(Cn2ccnc2)c2c(=O)c3ccccc3oc12` [CHEMBL2333332], `COc1ccc(Cn2ccnc2)c2c(=O)c3ccccc3oc12` [CHEMBL2333329] is 1.6-fold higher in IC50: 25.2 nM for the first, 41.1 nM for the second.

Same assay, conditions: reported activity, supplementary Table 1; ref Heim et al., 2008; read-out: CYP11B2 IC50; cited from earlier work

`COc1ccc2cc(-c3cncc(CO)c3)ccc2c1` [CHEMBL448064] and `COc1ccc2cc(-c3cccnc3)c(C)cc2c1` [CHEMBL499871] are within 1.5-fold of each other in IC50: 9.1 nM for the first, 7 nM for the second.

Going from `COc1ccc2c(c1)CC(C)C(c1cncc3ccccc13)=C2` (stereo not drawn) [CHEMBL499044] to `COc1ccc2cc(-c3cncc4ccccc34)c(C)cc2c1` [CHEMBL525785], the IC50 rises from 0.5 nM to 3.1 nM (6.2-fold). The first is the more potent here.

In the case of `N#Cc1ccc2c(c1)CCC(c1cccnc1)=C2` [CHEMBL500663], the IC50 is listed as 4.5 nM.

Same assay, conditions: reported activity, supplementary Table 1; ref Hille et al., 2011a; read-out: CYP11B2 IC50; cited from earlier work

Going from `Clc1ncc(Cn2ccnc2)cc1-c1cccs1` [CHEMBL2011430] to `c1coc(-c2cc(Cn3ccnc3)cnc2-c2ccco2)c1` [CHEMBL2011437], the IC50 rises from 416 nM to 830 nM (2-fold).

First: c1ccc2c(-c3ccc(Cn4ccnc4)cn3)cncc2c1 [CHEMBL2011260]
Second: c1cn(Cc2ccc(-c3ccoc3)nc2)cn1 [CHEMBL2011435]
The IC50 of the first is 3.1-fold lower: 914 nM for the first, 2830 nM for the second.

Same assay, conditions: reported activity, supplementary Table 1; ref Hille et al., 2011b; read-out: CYP11B2 IC50; cited from earlier work

`Cc1cccc(Cn2ccnc2)c1` [CHEMBL1651493] and `Cc1cc(C)cc(Cn2ccnc2)c1` [CHEMBL1651494] are within 1.5-fold of each other in IC50: 110 nM for the first, 77 nM for the second.

First: c1ccc(-c2ccc(Cn3ccnc3)s2)cc1 [CHEMBL1651514]
Second: c1ccc(-c2ccc(Cn3ccnc3)cc2)cc1 [CHEMBL1235146]
The IC50 of the first is 1.8-fold lower: 353 nM for the first, 637 nM for the second.

Same assay, conditions: reported activity, supplementary Table 1; ref Hu et al., 2012; read-out: CYP11B2 IC50; cited from earlier work

For `O=C1CCc2cc(-c3cccnc3)cc(Br)c2N1` [CHEMBL2165322], the IC50 is listed as 12 nM.

Same assay, conditions: reported activity, supplementary Table 1; ref Lucas et al., 2008b; read-out: CYP11B2 IC50; cited from earlier work

In the case of `CN1C(=O)CCc2cc(-c3cccnc3)ccc21` [CHEMBL446083], the IC50 is listed as 2.6 nM.

Same assay, conditions: reported activity, supplementary Table 1; ref Lucas et al., 2011; read-out: CYP11B2 IC50; cited from earlier work

`S=C1CCc2cc(-c3cccnc3)cc3c2N1CC3` [CHEMBL1765232] and `O=C1CCc2cc(-c3cccnc3)cc3c2N1CC3` [CHEMBL1765205] are within 1.5-fold of each other in IC50: 1.2 nM for the first, 1.1 nM for the second.

Going from `O=C1CCc2cc(-c3cncc(-c4cc(F)cc(F)c4)c3)cc3c2N1CC3` [CHEMBL1765225] to `O=C1CCc2cc(-c3cncc(F)c3)cc3c2N1CC3` [CHEMBL1765212], the IC50 falls from 18 nM to 4.4 nM (4.1-fold).

Going from `COc1cncc(-c2cc3c4c(c2)CCC(=O)N4CCC3)c1` [CHEMBL1765208] to `O=C1CCc2cc(-c3cncnc3)cc3c2N1CC3` [CHEMBL1765217], the IC50 rises from 0.9 nM to 56 nM (62-fold). The first is the more potent here.

In the case of `O=C1CCc2cc(-c3cncc(-c4ccccc4F)c3)cc3c2N1CC3` [CHEMBL1765220], the IC50 is listed as 0.7 nM.
